Laboratory results taken from US20190022239A1, “NOVEL BIOMOLECULE CONJUGATES AND USES THEREFOR” (The University of Western Australia, priority 2016, published 2019).

What was measured:
RIP-Tag insulinoma = test: Tumour ECM content (collagen-1, laminin, nidogen-1); assay type: in vivo, mice; conditions: 2 μg or 5 μg i.v. daily for five days
Procedure: As evidenced by analysis of the ECM components collagen-1, laminin and nidogen-1, intravenous injection of TNFα-CSG at a dose of 2 μg or 5 μg daily for five days to mice having a RIP-Tag insulinoma, specifically reduces tumour ECM content (FIG. 9).

[1] = Toxicity of repeated intravenous injections; assay type: in vivo; conditions: 0.5-10 μg daily i.v., total of 8 injections
Procedure: To determine potential toxicity effects of TNFα-CSG, the inventors then administered TNFα-CSG intravenously to mice (n=6) at a dose ranging from 0.5-10 μg daily, to a total of 8 injections. TNFα-CSG is non-toxic at these doses and frequency.

4T1 tumour = test: Anti-tumorigenic effect on 4T1 tumour growth; assay type: in vivo, mice; conditions: 2 μg, 6 injections in 2 weeks
Procedure: The inventors have also discovered that TNFα-CSG has anti-tumorigenic effects, as evidenced by reduced tumour growth and reduced cell proliferation. 4T1 tumour-bearing mice were treated with 2 μg TNFα-CSG or control CSG peptide 4 days after inoculation with 5×10^5 4T1 cells. Each mouse received a total of 6 injections in 2 weeks.

insulinoma = test: Tumour uptake of iron oxide micelles (MRI); assay type: in vivo, mice; conditions: 2 μg dose daily for five days; 6 hr circulation
Procedure: Reduced tumour ECM and stiffness, as well as improved perfusion was also shown to result in enhanced tumour uptake of a nano-imaging contrast agent. Specifically, insulinoma-bearing mice were treated with 2-10 μg TNFα-CSG or CSG control peptide by intravenous infection daily for five days. Following this, mice were intravenously injected with 100 μL of 1 mM iron oxide (IO) micelles (30 nm diameter). Tumours were harvested after 6 hr circulation and imaged by MRI and microscopic analysts of tissues mounted in 2% agarose. […] This accumulation was confirmed by immunostaining analysis of tissue cross sections using anti-FITC antibody.

[2] = tested on: macrophage cell line J774; test: Bioactivity: J774 macrophages on matrigel attached with TNFα-CSG; assay type: cell-based; conditions: 0.1 mmol on matrigel, 1 to 16 hrs
Procedure: Bioactivity of TNFα-CSG was assessed in vitro, specifically by incubating macrophage cell, line, J774, on matrigel attached with TNFα-CSG (0.1 mmol).

With “TNFα-CSG: Mature murine TNFα (SEQ ID NO:6) with C-terminal conjugated peptide CSGRRSSKC connected via a GGG linker; recombinant fusion protein” the “ECM content in normal pancreas” value (RIP-Tag insulinoma) was “remained unaltered”, the “tumour ECM content (collagen-1, laminin, nidogen 1, excluding basement membrane)” value (RIP-Tag insulinoma) was “significant reduction in ECM content” and the toxicity [1] was “non-toxic”. For the same substance, the “ratio of cytotoxic T cells to immune suppressor T cells” value (4T1 tumour) was “significantly higher ratio of cytotoxic T cells to immune suppressor T cells”, the “tumour cell proliferation (Ki67+)” value (4T1 tumour) was “significant reduction in tumour cell proliferation” and the “tumour size and weight” value (4T1 tumour; vs control CSG peptide) was “significantly reduced”. For the same substance, the “accumulation of FITC-labelled IO micelles in tumours (MRI T2* and T2 relaxation)” value (insulinoma) was “increased accumulation of FITC-labelled IO micelles”, the “loss of signal (T2 relaxation time)” value (insulinoma) was “significantly lower” and the “protease secretion by J774 cells” value [2] was “secretion of MMP-2 and MMP-9”.
